From patent publication US20120196918A1, “PREVENTING ISLET INFLAMMATION AND DYSFUNCTION AND MAINTAINING PROPER GLUCOSE LEVELS BY CONTROLLING eIF5A AND ITS HYPUSINATION” (priority 2009, published 2012)

Experiments:
[1] = system: eIF5A-Hyp binding to mRNA; experiment: RNA immunoprecipitation with eIF5A antibody in cytokine-treated INS-1 cells; format: cell-based, rat; settings: GC7 overnight, cytokines 4 h
Description: The retention of both Nos2 transcripts and eIF5A in the nucleus upon inhibition of hypusination is consistent with a close relationship between the two molecules, such that eIF5A may serve to chaperone Nos2 transcripts from the nucleus to the cytoplasm in response to cytokine stimulation. eIF5A-Hyp binds to RNAs that contain the consensus sequence 5′-AAAUGU-3′ (47), which is present in the Nos2 mRNA. To determine if eIF5A-Hyp binds Nos2 mRNA, RNA immunoprecipitation assays using INS-1 cell total RNA were performed. […] In contrast, no co-precipitation of other NFkB target and non-target genes was observed.
RNA immunoprecipitation (RIP) assays: RIP assays from 1×10^7 formaldehyde cross-linked INS-1 cells were performed as described (75). Isotype-matched antibodies against eIF5A and the FLAG-M2 epitope (for control immunoprecipitations) were used at a final dilution of 1:100. Immunoprecipitated RNA was reversed transcribed and subjected to quantitative PCR amplification for selected genes as described above. All data represent the average of triplicate determinations from at least 3 independent RIP assays.

Nos2 mRNA = experiment: Nos2 transcript levels in INS-1 cells (quantitative RT-PCR); format: cell-based, rat; settings: 125 μM GC7, cytokines
Description: eIF5A1 and eIF5A2 are the only proteins known to contain the unique amino acid hypusine at position 50. Hypusine is formed as a posttranslational modification of residue Lys50 in a reaction requiring spermidine and catalyzed by the sequential actions of the enzymes deoxyhypusine synthase (DHS) and deoxyhypusine hydroxylase (DOHH) (Chen, K Y, and Liu, A Y. Biochemistry and function of hypusine formation on eukaryotic initiation factor 5A. Biol Signals. 1997; 6(3):105-109). […] To further investigate the mechanism of eIF5A-regulated translation of Nos2, studies were performed following overnight incubation of cells with mimosine (an inhibitor of DOHH) and GC7 (an inhibitor of DHS). […] Similar data using GC7 were obtained in primary mouse islets (data not shown) and in human islets (FIGS. 5F and 5G). […]
Quantitative RT-PCR: Five micrograms of total RNA from islets or INS-1 cells were reverse-transcribed as detailed previously (77). cDNA was subjected to quantitative PCR using SYBR Green-based technology and published primers for mouse Ins1/2 pre-mRNA (78) and QuantiTech® primers (Qiagen) for all other mouse genes. […] All samples were corrected for total input RNA as quantitated by an Experion® (Bio-Rad) bioanalyzer. […]

## NCCCCCCCN=C(N)N [GC7]
[1]
  co-precipitation of mRNA with eIF5A antibody: no co-precipitation of any mRNA species
Nos2 mRNA
  Nos2 transcript levels: remained disproportionately elevated
